Test results taken from PMC8989888, “Development of optimized drug-like small molecule inhibitors of the SARS-CoV-2 3CL protease for treatment of COVID-19” (Nature Communications, 2022).
Several values for one entry are separate records, joined by “and”; a condition that tells them apart may be missing. Equal values may be shown once. Read-outs that look alike come from different tables or passages of the source.

Columns and labels:
SARS-CoV-2 3CL protease [1] = target: T1, SARS-CoV-2 3CL protease (Severe acute respiratory syndrome coronavirus 2, UniProt P0DTD1); assay: biochemical
SARS-CoV-2 3CL protease [2] = target: T1, SARS-CoV-2 3CL protease; assay: biochemical; conditions: for kinact/KI: read-out: SARS-CoV-2 3CLpro kinact/KI
SARS-CoV-2 [3] = assay: microbe, parasite or virus in culture; format: cell-based
SARS-CoV-2 [4] = assay: microbe, parasite or virus in culture; format: cell-based; conditions: for EC50: Severe acute respiratory syndrome coronavirus 2, 24 h, read-out: SARS-CoV-2 Huh-7ACE2 EC50
SARS-CoV-2 [5] = assay: microbe, parasite or virus in culture; format: cell-based; conditions: Severe acute respiratory syndrome coronavirus 2, read-out: SARS-CoV-2 EC50
[6] = test system: Human coronavirus alpha (strain: 229E); assay: organism not typed; format: cell-based, HCoV-229E; conditions: Huh-7, read-out: EC50, human coronavirus 229E
[7] = test system: Human coronavirus beta (strain: OC43); assay: organism not typed; format: cell-based, HCoV-OC43; conditions: Huh-7, read-out: EC50, human coronavirus OC43
[8] = test system: Influenza A H1N1 (strain: California/07/2009); assay: microbe, parasite or virus in culture; format: cell-based
SARS-CoV-2 [9] = assay: cell-based
in vitro [10] = assay: in vitro
SARS-CoV-2 [11] = assay: microbe, parasite or virus in culture; conditions: Severe acute respiratory syndrome coronavirus 2, Caco-2, 72 h, read-out: SARS-CoV-2 Caco-2 EC90
SARS-CoV-2 3CL protease [12] = target: T1, SARS-CoV-2 3CL protease; format: binding
SARS-CoV-2 3CL protease [13] = target: T1, SARS-CoV-2 3CL protease; format: binding; remark: listed apart in the source
human chymotrypsin = assay: Chymotrypsin activity assay (Panc-1 cell lysate); format: biochemical
in vitro [14] = conditions: human, plasma
in vitro [15] = conditions: CD-1, mouse, plasma
in vitro [16] = conditions: human, microsomes, pH 7.4
in vitro [17] = conditions: CD-1, mouse, microsomes, pH 7.4
[18] = Mouse liver microsome stability; conditions: liver microsomes, second (control) series
SARS-CoV-2 [19] = conditions: read-out: SARS-CoV-2 antiviral EC50; cited from earlier work
[20] = 20 nM protease, read-out: SARS-CoV-2 3CLpro IC50
[21] = Concentration of inhibitor (nM) 0.19382
[22] = Concentration of inhibitor (nM) 0.49485
[23] = Concentration of inhibitor (nM) 0.79588
[24] = Concentration of inhibitor (nM) 1.09691
[25] = Concentration of inhibitor (nM) 1.39794
[26] = Concentration of inhibitor (nM) 1.69897
[27] = Concentration of inhibitor (nM) 2
[28] = Concentration of inhibitor (nM) 2.60206
[29] = Concentration of inhibitor (nM) -0.10721
[30] = Concentration of inhibitor (nM) -0.40824
[31] = Severe acute respiratory syndrome coronavirus 2, Vero C1008, read-out: SARS-CoV-2 Vero E6 EC50

| Compound | IC50 (SARS-CoV-2 3CL protease [1]; [20]) [nM] | normalized activity, dose-response curve (Figure S16) (SARS-CoV-2 3CL protease [1]; [21]) | normalized activity, dose-response curve (Figure S16) (SARS-CoV-2 3CL protease [1]; [22]) | normalized activity, dose-response curve (Figure S16) (SARS-CoV-2 3CL protease [1]; [23]) | normalized activity, dose-response curve (Figure S16) (SARS-CoV-2 3CL protease [1]; [24]) | normalized activity, dose-response curve (Figure S16) (SARS-CoV-2 3CL protease [1]; [25]) | normalized activity, dose-response curve (Figure S16) (SARS-CoV-2 3CL protease [1]; [26]) | normalized activity, dose-response curve (Figure S16) (SARS-CoV-2 3CL protease [1]; [27]) | normalized activity, dose-response curve (Figure S16) (SARS-CoV-2 3CL protease [1]; [28]) | normalized activity, dose-response curve (Figure S16) (SARS-CoV-2 3CL protease [1]; [29]) | normalized activity, dose-response curve (Figure S16) (SARS-CoV-2 3CL protease [1]; [30]) | observed inactivation rate vs compound concentration (Figure S19, replicate values) (SARS-CoV-2 3CL protease [2]) | kinact/KI (SARS-CoV-2 3CL protease [2]) [M⁻¹ s⁻¹] | EC50 (SARS-CoV-2 [3]; [31]) [nM] | inhibition of SARS-CoV-2 (Figure s17b dose-response, replicate values) (SARS-CoV-2 [4]) | EC50 (SARS-CoV-2 [4]) [nM] | EC50 (SARS-CoV-2 [9]) [nM] | binding to 3CL protease by mass spectrometry (in words) (SARS-CoV-2 3CL protease [13]) | EC50 (SARS-CoV-2 [19]) [nM] | other results |
| --- | --- | --- | --- | --- | --- | --- | --- | --- | --- | --- | --- | --- | --- | --- | --- | --- | --- | --- | --- | --- |
| CC(C)C[C@H](NC(=O)OCc1cccc(Cl)c1)C(=O)N[C@@H](C[C@@H]1CCNC1=O)C(O)S(=O)(=O)O (some centres unmarked) [EB46] | 23 | 94.5875 and 99.4983 | 85.636 and 94.5724 | 82.4718 and 89.5097 | 66.6922 and 69.8061 | 43.7931 and 49.1904 | 26.3066 and 19.407 | 3.283 and 4.675 | 0.4514 and 0.7525 | 95.5867 and 98.0844 | 100 | 0.066 and 0.0593 and 0.077 and 0.0911 and 0.0219 and 0.0804 and 0.0309 and 0.0674 and 0.0293 and 0.0341 and 0.0137 and 0.0021 and 0.0076 and 0.0213 and 0.0308 and 0.0151 and 0.0444 and 0.0119 | 55000 | 2000 | 95.1515 and 86.8894 and 89.9129 and 91.3208 and 86.4116 and 95.1857 and 65.8333 and 65.5396 and 57.9806 and 19.6057 and 31.892 and 43.1913 and 11.28 and 11.1506 and 22.0558 and -4.012 and 10.0819 and 19.0531 and -4.489 and -1.7527 and 16.6924 | 14 | 1100 |  |  | normalized activity, dose-response curve (Figure S16) (SARS-CoV-2 3CL protease [1]; Concentration of inhibitor (nM) 2.30103): 2.2 and 3.398; EC50 (SARS-CoV-2 [5]): 47 nM; EC50 [6]: < 100 nM; EC50 [7]: < 100 nM; effect on replication of Influenza H1N1 (in words) [8]: no effect was observed; EC50 ([8]; Influenza A virus, H1N1, MDCK, read-out: Influenza A (H1N1) MDCK EC50): > 100 µM; CC50 (in vitro [10]): > 100 µM; EC90 (SARS-CoV-2 [11]): 53 nM |
| CCOC(=O)C=CC(CC1CCNC1=O)NC(=O)C(CC(C)C)NC(=O)C(NC(=O)OCc1ccccc1)C(C)OC(C)(C)C (centres unmarked) [compound 4] |  |  |  |  |  |  |  |  |  |  |  |  |  |  |  |  |  | one-to-one complex |  | Normalized SARS-CoV-2 3CL protease activity (SARS-CoV-2 3CL protease [1]): 0.006645 and 0.009809 and 0.01123; IC50 (SARS-CoV-2 3CL protease [1]; IC50): 123 nM; binding stoichiometry (SARS-CoV-2 3CL protease [12]): 0.97 ± 0.06; Normalized chymotrypsin activity (human chymotrypsin): 0.9372 and 0.8587 and 0.9322; EC50 (SARS-CoV-2 [3]; Severe acute respiratory syndrome coronavirus 2, Vero C1008, 72 h, read-out: EC50, inhibition of SARS-CoV-2 viral replication): 800 nM; concentration above which precipitates formed: above 100 µM; half-life (in vitro [14]): > 240 min; half-life (in vitro [15]): 10 min; half-life (in vitro [16]): 19 min; half-life (in vitro [17]): 7.3 min |
| CCOc1ccc2ccc(=O)oc2c1 [7-ethoxycoumarin] |  |  |  |  |  |  |  |  |  |  |  |  |  |  |  |  |  |  |  | percent remaining (Figure S11f) ([18]; Time T0 min): 100; percent remaining (Figure S11f) ([18]; Time T40 min): 93.3574 and 91.0789; percent remaining (Figure S11f) ([18]; Time T80 min): 86.8345 and 92.3642 |
| CC(C)(C)[C@H](NC(=O)C(F)(F)F)C(=O)N1C[C@H]2[C@@H]([C@H]1C(=O)N[C@H](C#N)C[C@@H]1CCNC1=O)C2(C)C [PF-07321332] |  |  |  |  |  |  |  |  |  |  |  |  |  |  |  |  |  |  | 78 |  |
| CC(C)C[C@H](NC(=O)OCc1ccc2ccccc2c1)C(=O)N[C@@H](C[C@@H]1CCNC1=O)C(O)S(=O)(=O)O (some centres unmarked) [EB56] | 50 | 89.823 and 93.9936 | 85.2362 and 82.2757 | 85.487 and 88.0978 | 72.8375 and 72.1422 | 69.3615 and 64.0723 | 53.5944 and 48.1904 | 29.9078 and 31.2768 | 3.964 and 3.456 | 94.804 and 91.5247 | 100 | 0.0572 and 0.0815 and 0.095 and 0.0426 and 0.0949 and 0.1078 and 0.0732 and 0.0307 and 0.0058 and 0.0365 and 0.0284 and 0.0434 and 0.0176 and 0.0243 and -0.00666 and 0.0205 and 0.0022 and 0.0219 and 0.0071 and 0.0016 and -0.00538 | 18300 | 4000 | 102.227 and 102.618 and 99.1767 and 91.8872 and 92.3176 and 92.3719 and 59.4672 and 57.4366 and 41.3693 and 36.9002 and 26.4205 and 14.778 and 9.09 and 16.3686 and 1.374 and -4.092 and 13.2513 and -12.3171 and 9.345 and 11.9707 and 3.907 | 28 | 800 | blocked the covalent binding of 10 equivalents of compound 4 |  |  |
| PF-00835231 |  |  |  |  |  |  |  |  |  |  |  |  |  |  |  |  |  |  | 221 |  |
